According to PMC6976569, “Structural basis of subtype-selective competitive antagonism for GluN2C/2D-containing NMDA receptors” (Nature Communications, 2020):
“And” between values parts separate entries of the source, which are not always exact repeats. Equal entries are not always repeated.

Columns and labels:
Format in all cases: cell-based
[1] = target: T1, GluN1-4a/GluN2D NMDARs (Rattus norvegicus, UniProt P35439+Q62645); assay: TEVC electrophysiology on Xenopus laevis oocytes expressing GluN1-4a/GluN2D; details: for Ki: 100 μM glycine, 1 or 3 μM L-glutamate
T1 construct: expressed in transfected cells; host or cells: Xenopus laevis oocytes injected with cRNA
T1 sequence (Q62645 28-1323, other chains not shown): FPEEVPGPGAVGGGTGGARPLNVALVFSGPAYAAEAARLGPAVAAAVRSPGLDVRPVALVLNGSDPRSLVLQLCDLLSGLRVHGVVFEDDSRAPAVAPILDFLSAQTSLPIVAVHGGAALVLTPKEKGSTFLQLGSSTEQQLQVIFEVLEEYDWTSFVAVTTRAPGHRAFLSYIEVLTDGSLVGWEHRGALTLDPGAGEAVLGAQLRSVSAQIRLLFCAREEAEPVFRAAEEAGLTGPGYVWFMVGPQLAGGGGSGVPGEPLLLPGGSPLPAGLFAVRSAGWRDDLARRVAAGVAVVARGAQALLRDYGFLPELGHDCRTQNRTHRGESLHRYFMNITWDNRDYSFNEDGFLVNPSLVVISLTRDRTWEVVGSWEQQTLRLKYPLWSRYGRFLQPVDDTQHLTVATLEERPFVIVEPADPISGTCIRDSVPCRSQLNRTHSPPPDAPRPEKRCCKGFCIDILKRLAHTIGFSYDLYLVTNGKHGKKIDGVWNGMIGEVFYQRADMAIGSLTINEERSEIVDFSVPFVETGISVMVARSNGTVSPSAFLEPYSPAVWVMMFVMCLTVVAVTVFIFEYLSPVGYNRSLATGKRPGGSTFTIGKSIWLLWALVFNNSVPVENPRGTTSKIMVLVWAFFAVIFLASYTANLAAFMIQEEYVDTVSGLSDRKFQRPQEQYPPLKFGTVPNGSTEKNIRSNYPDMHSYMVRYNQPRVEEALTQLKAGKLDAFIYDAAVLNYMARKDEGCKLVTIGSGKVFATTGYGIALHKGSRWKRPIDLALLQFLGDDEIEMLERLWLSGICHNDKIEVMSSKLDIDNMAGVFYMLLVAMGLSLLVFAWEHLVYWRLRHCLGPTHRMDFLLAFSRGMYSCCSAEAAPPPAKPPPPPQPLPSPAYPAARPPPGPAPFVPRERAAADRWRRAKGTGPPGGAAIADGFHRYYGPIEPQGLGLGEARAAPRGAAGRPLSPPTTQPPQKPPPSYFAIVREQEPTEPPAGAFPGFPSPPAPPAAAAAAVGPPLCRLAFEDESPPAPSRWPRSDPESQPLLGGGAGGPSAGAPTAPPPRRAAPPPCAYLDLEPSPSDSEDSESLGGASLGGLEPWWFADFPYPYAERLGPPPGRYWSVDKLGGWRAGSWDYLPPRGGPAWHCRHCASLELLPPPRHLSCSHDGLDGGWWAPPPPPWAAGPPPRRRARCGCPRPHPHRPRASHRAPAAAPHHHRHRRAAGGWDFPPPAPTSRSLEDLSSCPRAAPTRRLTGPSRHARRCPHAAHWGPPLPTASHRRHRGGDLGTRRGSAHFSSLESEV
From the text: (§1) The chemical definition of UBP791 used in this study is a cis-racemic mixture of (2S,3R)- and (2R,3S)-isomers.
(§2) Plasmids (pSP or pCI_NEO) harboring rat GluN1 or GluN2 full-length subunits were linearized by restriction digestion and transcribed according to the manufacturer’s instructions (mMESSAGE mMachine SP6 or T7 kit, ThermoFisher Scientific). Recombinant rat GluN1-4a and GluN2 were expressed by co-injecting cRNA at a 1:2 (w/w) ratio into defolliculated X. laevis oocytes (amounts varied from 0.05–25 ng per oocyte). Two-electrode voltage-clamp recordings were performed 1–3 days after injection using agarose-tipped microelectrodes (0.4–1.2 MΩ) filled with 3 M KCl at a holding potential of −60 mV. The bath solution contained 5 mM HEPES, 100 mM NaCl, 0.3 mM BaCl2, 10 mM Tricine, at pH 7.4 (adjusted with KOH). […] For the statistical evaluation, we implemented pairwise F-tests to test variances, and then performed the Student t test with equal or unequal variances as determined previously, and accounted for multiple testing with the Bonferroni correction.

[2] = target: T2, GluN1-4a/GluN2D NMDARs (Rattus norvegicus, UniProt Q62645); assay: as above
T2 construct: expressed in transfected cells; host or cells: Xenopus laevis oocytes injected with cRNA
T2 sequence (Q62645 28-1323, other chains not shown): as above
From the text: as §1, §2

[3] = target: T3, GluN1-4a/GluN2D Met763Lys NMDARs (Rattus norvegicus, UniProt P35439+Q62645, M763K); assay: TEVC electrophysiology on oocytes expressing GluN1-4a/GluN2D Met763Lys
T3 construct: expressed in transfected cells; host or cells: Xenopus laevis oocytes injected with cRNA
T3 sequence (Q62645 28-1323 M763K, other chains not shown): as the sequence (Q62645 28-1323, other chains not shown) above, with M736K counted along it
From the text: (§3) To test the validity of the structural observation for the critical involvement of the methionine/lysine residue combination (GluN2D-Met763/Lys766, and GluN2A-4m-Met738/Lys741) in preferential binding of UBP791 to GluN2D over GluN2A, we conducted site-directed mutagenesis and assessed inhibition potencies of the mutant channels by TEVC. Specifically, we converted the GluN2D residues to the equivalent ones in the GluN2A subunit and measured macroscopic currents of the GluN1-4a/GluN2D mutant NMDARs.
as §2

[4] = target: T4, GluN1-4a/GluN2D Met763Lys/Lys766Arg NMDARs (Rattus norvegicus, UniProt P35439+Q62645, K766R/M763K); assay: TEVC electrophysiology on oocytes expressing GluN1-4a/GluN2D Met763Lys/Lys766Arg
T4 construct: expressed in transfected cells; host or cells: Xenopus laevis oocytes injected with cRNA
T4 sequence (Q62645 28-1323 M763K/K766R, other chains not shown): as the sequence (Q62645 28-1323, other chains not shown) above, with M736K, K739R counted along it
From the text: as §3, §2

[5] = target: T5, GluN1-4a/GluN2D Lys766Arg NMDARs (Rattus norvegicus, UniProt P35439+Q62645, K766R); assay: TEVC electrophysiology on oocytes expressing GluN1-4a/GluN2D Lys766Arg
T5 construct: expressed in transfected cells; host or cells: Xenopus laevis oocytes injected with cRNA
T5 sequence (Q62645 28-1323 K766R, other chains not shown): as the sequence (Q62645 28-1323, other chains not shown) above, with K739R counted along it
From the text: as §3, §2

[6] = target: human GluK1 (Homo sapiens, UniProt P39086); assay: Glutamate-stimulated Ca2+-influx fluorescence assay in HEK293 cells, GluK1
human GluK1, sequence (P39086 31-918): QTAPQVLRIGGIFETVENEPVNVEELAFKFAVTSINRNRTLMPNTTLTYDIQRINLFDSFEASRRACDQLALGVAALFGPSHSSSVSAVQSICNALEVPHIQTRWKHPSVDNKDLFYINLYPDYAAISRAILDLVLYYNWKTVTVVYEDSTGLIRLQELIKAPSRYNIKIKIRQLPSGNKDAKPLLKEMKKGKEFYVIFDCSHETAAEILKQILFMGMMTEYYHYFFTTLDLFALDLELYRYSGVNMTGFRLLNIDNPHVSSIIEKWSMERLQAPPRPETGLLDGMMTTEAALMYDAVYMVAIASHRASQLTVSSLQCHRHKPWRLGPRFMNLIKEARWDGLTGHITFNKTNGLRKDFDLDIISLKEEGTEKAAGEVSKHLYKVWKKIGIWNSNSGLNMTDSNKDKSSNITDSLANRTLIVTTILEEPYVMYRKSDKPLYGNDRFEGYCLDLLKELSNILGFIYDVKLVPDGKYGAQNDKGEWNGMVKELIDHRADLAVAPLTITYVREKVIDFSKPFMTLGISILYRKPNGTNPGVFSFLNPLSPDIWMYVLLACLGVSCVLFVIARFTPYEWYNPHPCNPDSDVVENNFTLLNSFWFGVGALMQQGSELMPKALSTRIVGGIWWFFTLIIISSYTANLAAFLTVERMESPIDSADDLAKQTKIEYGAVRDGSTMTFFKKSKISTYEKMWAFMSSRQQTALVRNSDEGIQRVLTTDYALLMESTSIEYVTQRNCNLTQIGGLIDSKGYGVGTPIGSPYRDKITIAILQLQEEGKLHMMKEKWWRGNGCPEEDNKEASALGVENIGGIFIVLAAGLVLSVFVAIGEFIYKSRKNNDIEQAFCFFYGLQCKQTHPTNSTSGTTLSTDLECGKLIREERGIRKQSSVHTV
Description: Supplementary Figure 5. Effect of antagonist compounds on GluK1.
Averaged dose-response curves (average ± standard error of the mean) for inhibition with a […]
glutamate-stimulated Ca2+-influx assay from 3 or 4 measurements (n). IC50, Ki, and Hill coefficient nH (mean ± standard error of the mean) calculated with the Cheng-Prusoff equation were determined per measurement and are as shown. […]
HEK293 cell lines stably expressing homomeric glutamate receptors (GluA1, GluK1 and GluK2) were obtained from Eli Lilly and grown in DMEM (ThermoFisher) supplemented with 10% v/v fetal bovine serum (Sigma), 2 mM Glutamax™ (Gibco), 100 U/mL penicillin, 100 µg streptomycin and 250 ng amphotericin B (Sigma) in 5% CO2 at 37 °C. […]
Calcium influx fluorescence assay
100k cells/well were seeded into a 96-well plate precoated with poly-L-lysine and incubated for 12-16 hours until fully confluent. […] The time resolved fluorescence was recorded in a Flexstation 3 instrument (Molecular Devices). For each individual reading, the initial fluorescence of the well was measured for 20 seconds, after which the desired concentration of […]
response is measured as the peak change in fluorescence upon addition of agonist. […] Readings of antagonists used the […]
Fluorescence traces were performed in […]
triplicate on each plate and Ki values were determined on a plate-by-plate basis. […]

[7] = target: T6, GluN1-4a/GluN2C NMDARs (Rattus norvegicus, UniProt Q00961); assay: TEVC electrophysiology on Xenopus laevis oocytes expressing GluN1-4a/GluN2C; details: Ki GluN2C relative to Ki GluN2D (WT)
T6 construct: expressed in transfected cells; host or cells: Xenopus laevis oocytes injected with cRNA
T6 sequence (Q00961 20-1237, other chains not shown): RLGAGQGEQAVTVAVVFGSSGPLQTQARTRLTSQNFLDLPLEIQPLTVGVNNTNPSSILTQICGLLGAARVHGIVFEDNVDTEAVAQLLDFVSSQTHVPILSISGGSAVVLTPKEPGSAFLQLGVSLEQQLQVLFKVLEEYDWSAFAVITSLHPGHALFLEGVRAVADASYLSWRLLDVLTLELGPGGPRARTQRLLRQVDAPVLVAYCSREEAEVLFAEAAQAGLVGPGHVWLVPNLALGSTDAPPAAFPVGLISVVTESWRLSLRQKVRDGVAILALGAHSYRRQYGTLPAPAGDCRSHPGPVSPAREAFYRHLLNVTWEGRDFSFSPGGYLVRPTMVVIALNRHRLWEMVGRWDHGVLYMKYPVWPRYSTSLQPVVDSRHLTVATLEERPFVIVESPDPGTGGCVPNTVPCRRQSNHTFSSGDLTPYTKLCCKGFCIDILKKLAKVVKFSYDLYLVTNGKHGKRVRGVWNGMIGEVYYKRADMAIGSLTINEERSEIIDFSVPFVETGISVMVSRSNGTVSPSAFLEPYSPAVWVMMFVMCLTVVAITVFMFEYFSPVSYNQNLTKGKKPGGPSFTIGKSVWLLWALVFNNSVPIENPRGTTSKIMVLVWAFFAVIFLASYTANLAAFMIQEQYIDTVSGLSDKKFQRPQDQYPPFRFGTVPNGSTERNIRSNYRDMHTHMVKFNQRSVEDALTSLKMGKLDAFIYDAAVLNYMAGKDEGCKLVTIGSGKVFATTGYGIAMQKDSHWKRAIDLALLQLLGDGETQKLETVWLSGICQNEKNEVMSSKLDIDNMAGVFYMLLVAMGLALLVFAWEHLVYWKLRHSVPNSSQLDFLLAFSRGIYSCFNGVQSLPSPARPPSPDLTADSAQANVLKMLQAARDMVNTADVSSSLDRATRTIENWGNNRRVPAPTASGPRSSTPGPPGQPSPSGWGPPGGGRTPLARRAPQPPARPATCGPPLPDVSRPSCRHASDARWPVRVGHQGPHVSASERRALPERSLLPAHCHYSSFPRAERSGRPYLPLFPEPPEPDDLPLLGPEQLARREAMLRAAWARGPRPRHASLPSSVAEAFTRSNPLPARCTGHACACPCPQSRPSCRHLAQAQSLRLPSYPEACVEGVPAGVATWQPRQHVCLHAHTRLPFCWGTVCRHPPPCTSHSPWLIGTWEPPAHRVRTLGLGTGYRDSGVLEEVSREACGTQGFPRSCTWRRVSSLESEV
From the text: as §1, §2

In the case of `O=C(O)CCc1ccc2c(ccc3cc(C(=O)N4CCN[C@@H](C(=O)O)[C@H]4C(=O)O)ccc32)c1` (relative stereo) [UBP791, (2S*,3R*)-1-(7-(2-carboxyethyl)phenanthrene-2-carbonyl)piperazine-2,3-dicarboxylic acid], the IC50 [1] is reported as 0.56 ± 0.01 µM, the Ki ([1]; Cheng–Prusoff from IC50 and L-glutamate EC50) is reported as 0.09 ± 0.02 µM and the Ki ([1]; Cheng–Prusoff) is reported as 0.08 to 0.09 µM. The “Hill coefficient (nH)” value ([2]; inhibition dose-response, 100 μM glycine, 1 or 3 μM L-glutamate) was 1.40 ± 0.02, the IC50 [3] was 1.9 ± 0.06 µM and the Ki [3] was 0.41 ± 0.07 µM. The IC50 [4] was 7.24 ± 0.44 µM, the Ki [4] was 1.15 ± 0.05 µM and the IC50 [5] was 1.45 ± 0.08 µM. For the same compound, the Ki [5] was 0.17 ± 0.03 µM and the Ki [6] was ~100 µM.

With `O=C(O)C=Cc1ccc2c(ccc3cc(C(=O)N4CCN[C@@H](C(=O)O)[C@H]4C(=O)O)ccc32)c1` (relative stereo) [UBP1700, (2S*,3R*)-1-(7-(2-carboxyvinyl)phenanthrene-2-carbonyl)piperazine-2,3-dicarboxylic acid] the Ki ([1]; Cheng–Prusoff) was 0.007 µM and 0.007 to 0.009 µM, the “fold higher affinity on GluN2D compared to UBP145 and UBP161” value ([2]; peer review file, authors' response) was > 140 fold and the “fold difference of Ki vs. 2D (GluN2C)” value [7] was ~ 1.3 fold. For the same compound, the Ki [6] was ~32 µM.
